Literature values, collected in paper PMC3241508 (Bioconjugate chemistry, 2011).

For dextran sulfate, the “oral absorption into the blood stream” value (later study) is given as “good oral absorption” and the oral absorption (oral) is given as “poorly absorbed orally”.
